Measurements as given in patent US7205436B2, “Process for manufacture of quaternary ammonium tosylate salts of cinnamidoalkylamines and / or benzamidoalkylamines” (Galaxy Surfactants Limited, priority 2003, dated 2007).

Assay: UV absorption: molar extinction coefficient in methanol
Assay type: physicochemical
Conditions: at λmax 310 nm in methanol

CCCCCCCCCCCC[N+](C)(C)CCCNC(=O)C=Cc1ccc(OC)cc1.Cc1ccc(S(=O)(=O)[O-])cc1 [Example I, p-methoxy cinnamidopropyldimethyllauryl ammonium tosylate]
molar extinction coefficient, ε: 25,000
